ChEMBL document CHEMBL4680155, “One-pot synthesis and molecular docking of some new spiropyranindol-2-one derivatives as immunomodulatory agents and in vitro antimicrobial potential with DNA gyrase inhibitor” (Eur J Med Chem, 2020)
≈ marks a conversion by molar mass, not a printed value.

How the values were obtained:
[1] = tested on: Enterococcus faecalis; experiment: Antibacterial activity against Enterococcus faecalis ATCC 29212 assessed as diameter of inhibition zone at 0.5 mg/ml incubated for 24 hrs by agar diffusion method; type: functional; conditions: read-out: DIZ
[2] = tested on: Staphylococcus aureus; experiment: Antibacterial activity against Staphylococcus aureus ATCC 29213 assessed as diameter of inhibition zone at 0.5 mg/ml incubated for 24 hrs by agar diffusion method; type: functional; conditions: read-out: DIZ
[3] = tested on: Escherichia coli; experiment: Antibacterial activity against Escherichia coli ATCC 25922 assessed as diameter of inhibition zone at 0.5 mg/ml incubated for 24 hrs by agar diffusion method; type: functional; conditions: read-out: DIZ
[4] = tested on: Salmonella typhimurium; experiment: Antibacterial activity against Salmonella typhi ATCC 6539 assessed as diameter of inhibition zone at 0.5 mg/ml incubated for 24 hrs by agar diffusion method; type: functional, Salmonella enterica subsp. enterica serovar Typhimurium; conditions: Salmonella enterica, read-out: DIZ
[5] = tested on: Candida albicans; experiment: Antifungal activity against Candida albicans ATCC 10231 assessed as diameter of inhibition zone at 0.5 mg/ml incubated for 24 hrs by agar diffusion method; type: functional; conditions: read-out: DIZ
[6] = tested on: Aspergillus brasiliensis; experiment: Antifungal activity against Aspergillus brasiliensis ATCC 16404 assessed as diameter of inhibition zone at 0.5 mg/ml incubated for 72 hrs by agar diffusion method; type: functional; conditions: read-out: DIZ
[7] = tested on: Enterococcus faecalis; experiment: Antibacterial activity against Enterococcus faecalis ATCC 29212 assessed as reduction in bacterial growth incubated for 1 day by paper disk diffusion method; type: functional; conditions: ATCC 29212, 24 h
[8] = tested on: Staphylococcus aureus; experiment: Antibacterial activity against Staphylococcus aureus ATCC 29213 assessed as reduction in bacterial growth incubated for 1 day by paper disk diffusion method; type: functional; conditions: ATCC 29213, 24 h
[9] = tested on: Escherichia coli; experiment: Antibacterial activity against Escherichia coli ATCC 25922 assessed as reduction in bacterial growth incubated for 1 day by paper disk diffusion method; type: functional; conditions: ATCC 25922, 24 h
[10] = tested on: Salmonella typhimurium; experiment: Antibacterial activity against Salmonella typhi ATCC 6539 assessed as reduction in bacterial growth incubated for 1 day by paper disk diffusion method; type: functional, Salmonella enterica subsp. enterica serovar Typhimurium; conditions: Salmonella enterica, ATCC 6539, 24 h
[11] = tested on: Candida albicans; experiment: Antifungal activity against Candida albicans ATCC 10231 assessed as reduction in bacterial growth incubated for 1 day by paper disk diffusion method; type: functional; conditions: ATCC 10231, 24 h
[12] = tested on: Aspergillus brasiliensis; experiment: Antifungal activity against Aspergillus brasiliensis ATCC 16404 assessed as reduction in bacterial growth incubated for 3 days by paper disk diffusion method; type: functional; conditions: ATCC 16404, 72 h, time 3 day
[13] = tested on: Enterococcus faecalis; experiment: Bactericidal activity against Enterococcus faecalis ATCC 29212 incubated for 24 hrs followed by transferring to freshly prepared broth medium and measured after 24 hrs by broth microdilution assay; type: functional; conditions: time 48 hrs
[14] = tested on: Staphylococcus aureus; experiment: Bactericidal activity against Staphylococcus aureus ATCC 29213 incubated for 24 hrs followed by transferring to freshly prepared broth medium and measured after 24 hrs by broth microdilution assay; type: functional; conditions: time 48 hrs
[15] = tested on: Escherichia coli; experiment: Bactericidal activity against Escherichia coli ATCC 25922 incubated for 24 hrs followed by transferring to freshly prepared broth medium and measured after 24 hrs by broth microdilution assay; type: functional; conditions: time 48 hrs
[16] = tested on: Salmonella typhimurium; experiment: Bactericidal activity against Salmonella typhi ATCC 6539 incubated for 24 hrs followed by transferring to freshly prepared broth medium and measured after 24 hrs by broth microdilution assay; type: functional, Salmonella enterica subsp. enterica serovar […]; conditions: Salmonella enterica, time 48 hrs
[17] = tested on: Candida albicans; experiment: Fungicidal activity against Candida albicans ATCC 10231 incubated for 24 hrs followed by transferring to freshly prepared broth medium and measured after 24 hrs by broth microdilution assay; type: functional; conditions: time 48 hrs
[18] = tested on: Aspergillus brasiliensis; experiment: Fungicidal activity against Aspergillus brasiliensis ATCC 16404 incubated for 72 hrs followed by transferring to freshly prepared broth medium and measured after 24 hrs by broth microdilution assay; type: functional; conditions: time 96 hrs
[19] = tested on: Staphylococcus aureus; experiment: Antibacterial activity against multidrug resistant Staphylococcus aureus ATCC 43300 assessed as diameter of inhibition zone at 0.5 mg/ml incubated for 24 hrs by agar diffusion method; type: functional; conditions: read-out: DIZ
[20] = tested on: Staphylococcus aureus; experiment: Antibacterial activity against multidrug resistant Staphylococcus aureus ATCC 33591 assessed as diameter of inhibition zone at 0.5 mg/ml incubated for 24 hrs by agar diffusion method; type: functional; conditions: read-out: DIZ
[21] = tested on: Escherichia coli; experiment: Antibacterial activity against multidrug resistant Escherichia coli ATCC BAA-196 assessed as diameter of inhibition zone at 0.5 mg/ml incubated for 24 hrs by agar diffusion method; type: functional; conditions: read-out: DIZ
[22] = tested on: Pseudomonas aeruginosa; experiment: Antibacterial activity against multidrug resistant Pseudomonas aeruginosa ATCC BAA-2111 assessed as diameter of inhibition zone at 0.5 mg/ml incubated for 24 hrs by agar diffusion method; type: functional; conditions: read-out: DIZ
[23] = tested on: Staphylococcus aureus; experiment: Antibacterial activity against multidrug resistant Staphylococcus aureus ATCC 43300 assessed as reduction in bacterial growth incubated for 1 day by paper disk diffusion method; type: functional; conditions: ATCC 43300, 24 h
[24] = tested on: Staphylococcus aureus; experiment: Antibacterial activity against multidrug resistant Staphylococcus aureus ATCC 33591 assessed as reduction in bacterial growth incubated for 1 day by paper disk diffusion method; type: functional; conditions: ATCC 33591, 24 h
[25] = tested on: Escherichia coli; experiment: Antibacterial activity against multidrug resistant Escherichia coli ATCC BAA-196 assessed as reduction in bacterial growth incubated for 1 day by paper disk diffusion method; type: functional; conditions: ATCC BAA-196, 24 h
[26] = tested on: Pseudomonas aeruginosa; experiment: Antibacterial activity against multidrug resistant Pseudomonas aeruginosa ATCC BAA-2111 assessed as reduction in bacterial growth incubated for 1 day by paper disk diffusion method; type: functional; conditions: ATCC BAA-2111, 24 h
[27] = tested on: Staphylococcus aureus; experiment: Bactericidal activity against Staphylococcus aureus ATCC 43300 incubated for 24 hrs followed by transferring to freshly prepared broth medium and measured after 24 hrs by broth microdilution assay; type: functional; conditions: time 48 hrs
[28] = tested on: Staphylococcus aureus; experiment: Bactericidal activity against Staphylococcus aureus ATCC 33591 incubated for 24 hrs followed by transferring to freshly prepared broth medium and measured after 24 hrs by broth microdilution assay; type: functional; conditions: time 48 hrs
[29] = tested on: Escherichia coli; experiment: Bactericidal activity against Escherichia coli ATCC BAA-196 incubated for 24 hrs followed by transferring to freshly prepared broth medium and measured after 24 hrs by broth microdilution assay; type: functional; conditions: time 48 hrs
[30] = tested on: Pseudomonas aeruginosa; experiment: Bactericidal activity against Pseudomonas aeruginosa ATCC BAA-2111 incubated for 24 hrs followed by transferring to freshly prepared broth medium and measured after 24 hrs by broth microdilution assay; type: functional; conditions: time 48 hrs
[31] = tested on: Neutrophil; experiment: Immunomodulatory activity in human neutrophils infected with bacteria assessed as increase in bacterial killing by measuring reduced NBT incubated for 30 mins by NBT dye based spectrophotometry; type: functional; parameters: concentration or dose not given beside the values; conditions: 0.5 h
[32] = biological target: DNA gyrase (Staphylococcus aureus, UniProt P0A0K8+P20831); experiment: Inhibition of Staphylococcus aureus DNA gyrase using relaxed pBR322 DNA as substrate incubated for 45 mins by agarose gel electrophoresis method; type: protein-complex assay
DNA gyrase, sequence (P0A0K8 whole entry): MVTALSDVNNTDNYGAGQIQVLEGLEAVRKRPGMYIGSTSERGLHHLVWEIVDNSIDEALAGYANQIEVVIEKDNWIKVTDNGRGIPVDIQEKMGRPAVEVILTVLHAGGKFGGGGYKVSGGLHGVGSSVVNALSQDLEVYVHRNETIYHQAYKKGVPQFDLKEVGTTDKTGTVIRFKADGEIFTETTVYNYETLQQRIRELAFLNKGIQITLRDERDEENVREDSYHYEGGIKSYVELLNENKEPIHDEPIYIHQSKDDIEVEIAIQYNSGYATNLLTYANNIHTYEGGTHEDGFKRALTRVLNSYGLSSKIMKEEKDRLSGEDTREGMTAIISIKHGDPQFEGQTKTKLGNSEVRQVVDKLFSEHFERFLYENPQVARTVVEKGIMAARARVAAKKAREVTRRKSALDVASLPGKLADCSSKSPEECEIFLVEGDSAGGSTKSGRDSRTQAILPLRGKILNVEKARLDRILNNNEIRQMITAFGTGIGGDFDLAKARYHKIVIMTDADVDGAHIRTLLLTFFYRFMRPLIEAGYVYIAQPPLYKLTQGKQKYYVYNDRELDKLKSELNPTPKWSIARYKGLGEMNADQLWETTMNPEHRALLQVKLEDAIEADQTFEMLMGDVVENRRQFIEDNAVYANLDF
DNA gyrase, sequence (P20831 whole entry): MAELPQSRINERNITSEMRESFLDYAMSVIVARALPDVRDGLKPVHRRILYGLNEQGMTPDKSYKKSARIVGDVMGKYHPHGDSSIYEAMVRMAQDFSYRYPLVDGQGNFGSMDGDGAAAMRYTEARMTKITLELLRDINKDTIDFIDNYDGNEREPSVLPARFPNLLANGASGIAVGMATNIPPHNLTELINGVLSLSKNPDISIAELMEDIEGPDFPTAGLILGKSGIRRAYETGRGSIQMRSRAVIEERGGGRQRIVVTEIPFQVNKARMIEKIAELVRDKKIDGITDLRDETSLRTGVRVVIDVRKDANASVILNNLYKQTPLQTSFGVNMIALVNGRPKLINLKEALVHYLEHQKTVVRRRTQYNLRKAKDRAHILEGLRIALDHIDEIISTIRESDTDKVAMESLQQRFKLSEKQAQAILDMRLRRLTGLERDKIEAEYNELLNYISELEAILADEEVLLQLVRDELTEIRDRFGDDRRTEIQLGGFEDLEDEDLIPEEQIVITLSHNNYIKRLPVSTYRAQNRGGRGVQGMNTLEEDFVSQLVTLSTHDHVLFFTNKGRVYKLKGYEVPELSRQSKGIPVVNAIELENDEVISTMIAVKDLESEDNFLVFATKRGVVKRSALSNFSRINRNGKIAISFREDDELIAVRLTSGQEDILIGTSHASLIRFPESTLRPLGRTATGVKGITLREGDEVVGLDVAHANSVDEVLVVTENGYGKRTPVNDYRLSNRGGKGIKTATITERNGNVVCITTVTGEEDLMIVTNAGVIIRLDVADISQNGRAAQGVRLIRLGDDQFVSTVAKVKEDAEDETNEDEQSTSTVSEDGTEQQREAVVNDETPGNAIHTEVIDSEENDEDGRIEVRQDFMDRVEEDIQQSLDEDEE

Row | Structure (SMILES) | zone of inhibition at 500 µg/mL [1] | zone of inhibition at 500 µg/mL [2] | zone of inhibition at 500 µg/mL [3] | zone of inhibition at 500 µg/mL [4] | zone of inhibition at 500 µg/mL [5] | zone of inhibition at 500 µg/mL [6] | MIC [7] | MIC [8] | MIC [9] | MIC [10] | MIC [11] | MIC [12] | MBC [13] | MBC [14] | MBC [15] | MBC [16] | MFC [17] | MFC [18] | zone of inhibition at 500 µg/mL [19] | zone of inhibition at 500 µg/mL [20] | other results
1 | CCOC(=O)C1=C(N)OC(c2ccccc2)=C(C(C)=O)C12C(=O)Nc1ccc(S(=O)(=O)N3CCOCC3)cc12 (stereo unspecified) | 25 mm | 23 mm | 25 mm | 23 mm | 24 mm | 21 mm | 12.5 µg/mL (≈ 22.6 µM) | 62.5 µg/mL (≈ 113 µM) | 6.25 µg/mL (≈ 11.3 µM) | 35.5 µg/mL (≈ 64.2 µM) | 17.8 µg/mL (≈ 32.1 µM) | 35.5 µg/mL (≈ 64.2 µM) | 25 µg/mL (≈ 45.2 µM) | 81.2 µg/mL (≈ 147 µM) | 12.5 µg/mL (≈ 22.6 µM) | 49.8 µg/mL (≈ 89.9 µM) | 24.9 µg/mL (≈ 44.9 µM) | 71.1 µg/mL (≈ 128 µM) | 23 mm | 24 mm | zone of inhibition at 500 µg/mL [21]: 24 mm; zone of inhibition at 500 µg/mL [22]: 25 mm; MIC [23]: 3.9 µg/mL (≈ 7.04 µM); MIC [24]: 3.9 µg/mL (≈ 7.04 µM); MIC [25]: 3.9 µg/mL (≈ 7.04 µM); MIC [26]: 2.6 µg/mL (≈ 4.7 µM); MBC [27]: 7.8 µg/mL (≈ 14.1 µM); MBC [28]: 7.8 µg/mL (≈ 14.1 µM); MBC [29]: 6.24 µg/mL (≈ 11.3 µM); MBC [30]: 5.2 µg/mL (≈ 9.39 µM); Activity [31]: 95.6%; IC50 [32]: 20.1 µM
2 | CC(=O)C1=C(c2ccccc2)OC(N)=C(C#N)C12C(=O)Nc1ccc(S(=O)(=O)N3CCOCC3)cc12 (stereo unspecified) | 26 mm | 24 mm | 23 mm | 22 mm | 23 mm | 20 mm | 12.5 µg/mL (≈ 24.7 µM) | 17.8 µg/mL (≈ 35.1 µM) | 12.5 µg/mL (≈ 24.7 µM) | 62.5 µg/mL (≈ 123 µM) | 15.6 µg/mL (≈ 30.8 µM) | 71.8 µg/mL (≈ 142 µM) | 20 µg/mL (≈ 39.5 µM) | 23.1 µg/mL (≈ 45.6 µM) | 21.2 µg/mL (≈ 42 µM) | 81.2 µg/mL (≈ 160 µM) | 31.2 µg/mL (≈ 61.7 µM) | 108 µg/mL (≈ 213 µM) | 25 mm | 26 mm | zone of inhibition at 500 µg/mL [21]: 23 mm; zone of inhibition at 500 µg/mL [22]: 22 mm; MIC [23]: 0.97 µg/mL (≈ 1.91 µM); MIC [24]: 0.97 µg/mL (≈ 1.91 µM); MIC [25]: 6.25 µg/mL (≈ 12.3 µM); MIC [26]: 4.44 µg/mL (≈ 8.77 µM); MBC [27]: 145 µg/mL (≈ 286 µM); MBC [28]: 1.94 µg/mL (≈ 3.83 µM); MBC [29]: 5.85 µg/mL (≈ 11.5 µM); MBC [30]: 6.66 µg/mL (≈ 13.1 µM); Activity [31]: 123.5%; IC50 [32]: 24.8 µM
3 | N#CC(C#N)=C1C(=O)Nc2ccc(S(=O)(=O)N3CCOCC3)cc21 | 23 mm | 24 mm | 25 mm | 23 mm | 22 mm | 19 mm | 8.88 µg/mL (≈ 25.8 µM) | 35.5 µg/mL (≈ 103 µM) | 7.81 µg/mL (≈ 22.7 µM) | 15.6 µg/mL (≈ 45.4 µM) | 6.25 µg/mL (≈ 18.2 µM) | 62.5 µg/mL (≈ 182 µM) | 11.5 µg/mL (≈ 33.5 µM) | 46.2 µg/mL (≈ 134 µM) | 15.6 µg/mL (≈ 45.4 µM) | 28.1 µg/mL (≈ 81.6 µM) | 12.5 µg/mL (≈ 36.3 µM) | 100 µg/mL (≈ 290 µM) | 24 mm | 24 mm | zone of inhibition at 500 µg/mL [21]: 25 mm; zone of inhibition at 500 µg/mL [22]: 23 mm; MIC [23]: 3.9 µg/mL (≈ 11.3 µM); MIC [24]: 4.44 µg/mL (≈ 12.9 µM); MIC [25]: 3.9 µg/mL (≈ 11.3 µM); MIC [26]: 4.44 µg/mL (≈ 12.9 µM); MBC [27]: 5.04 µg/mL (≈ 14.6 µM); MBC [28]: 8.88 µg/mL (≈ 25.8 µM); MBC [29]: 6.24 µg/mL (≈ 18.1 µM); MBC [30]: 7.99 µg/mL (≈ 23.2 µM); Activity [31]: 145.7%; IC50 [32]: 26.4 µM
